Test results taken from US5986131A, “RXR selective ligands” (Hoffmann-La Roche Inc., priority 1997, dated 1999).
“Also recorded” adds a separate entry of the source.

Legend:
human sebaceous cells = test: Antiproliferative activity on human sebocytes in vitro; format: cell-based
Procedure: Sebaceous cells were isolated from adult human sebaceous glands by a combination of enzymatic and mechanical methods (Doran et al., 1991). The cells were cultured in Iscove's medium containing 10% fetal calf serum and 4 μg/ml dexamethasone on a layer of growth-arrested 3T3 mouse fibroblasts. Cells were plated in medium without the test compound and then given test compound in fresh medium 24-48 hours after the initial plating. The cultures were given fresh medium, containing the test compound, every 48 hours. On the day of harvesting, the cultures were rinsed with 0.03% EDTA in PBS, to remove only the 3T3 fibroblasts. followed by incubation in 0.05% trypsin/0.03% EDTA. The cells were suspended, mixed vigorously to prepare a single cell suspension and counted in a hemocytometer.
Stock solutions of compounds were made up as 10^-2 M solutions in 100% DMSO and stored at -20° C. in the dark. Compounds in solution were brought to room temperature and used by diluting directly into complete medium to the appropriate concentration.
The compounds of Example 12, Example 2, and Example 4 were tested for their effects on inhibiting the proliferation of first passage human sebaceous cells in vitro after 10 days of exposure to drug.

[1] = test system: Hamster Ear Sebaceous Gland; test: Effect on size of sebaceous glands of Golden Syrian hamsters; format: in vivo; design: Sebaceous Gland Size: unit not given here; conditions: 4 weeks topical dosing
Procedure: Charles River Golden Syrian male hamsters were given the desired dose in acetone. The compounds were stored at 4° C. protected from light. Fresh solutions were made up weekly.
Hamsters were dosed daily for five days, rested for two days, and dosed again for five days until 20 doses were given. The volume of solution was 50 microliters per ear.
Hamsters were sacrificed by CO2 inhalation, and the ears removed for histological evaluation. One ear was removed and the ventral surface separated from the rest of the ear. A 2 mm punch was removed 5 mm from the tip of the ear and stained in 0.1 % Sudan Black B dissolved in 100% propylene glycol overnight. After destaining, the size of sebaceous glands was quantified with a Donsanto Image Analysis System.
Data are given as the average area of 80-120 sebaceous glands per dose, as percent of the control (solvent-treated) sections.

Structure (SMILES): CC1=C(/C=C/C2=C(/C=C/C(C)=C/C(=O)O)CCCC2)C(C)(C)CCC1 [Example 4, (2E,4E)-3-Methyl-5-(2-((E)-2(2,6,6-trimethyl-1-cyclohexen-1-yl)ethenyl)-1-cyclohexen-1-yl)-2,4-pentadienoic acid]
- inhibition of sebocyte proliferation (in words) (human sebaceous cells): poor dose response curve; also recorded: much weaker than 13-cis-retinoic acid
- IC50 (human sebaceous cells; Homo sapiens, 240 h, first passage cells, 10 days of exposure, read-out: Inhibition of human sebaceous cell proliferation in vitro IC50): > 1000 nM
- Sebaceous Gland Size ([1]; 1 μg/day): 13237 ± 1491
- Sebaceous gland size % Change from Control ([1]; 1 μg/day, ns = not statistically significant): -20%
- Sebaceous Gland Size ([1]; 10 μg/day): 17046 ± 4667
- Sebaceous gland size % Change from Control ([1]; 10 μg/day, ns = not statistically significant): +3%
- Sebaceous Gland Size ([1]; 100 μg/day): 13043 ± 1577
- Sebaceous gland size % Change from Control ([1]; 100 μg/day): -21%
